According to patent publication US11292791B2 (priority 2017, dated 2022):

target: BRD4 (Homo sapiens (Human), UniProt O60885); settings: read-out: BRD4 IC50 (μM gmean)

Structure (SMILES) | IC50 [µM]
COC(=O)N1c2ccc3c(nc(CC4CCN(C(C)=O)CC4)n3[C@@H]3CCC[C@@H](C(=O)O)C3)c2CC[C@@H]1C [Example 892] | 1 to 1000
COC(=O)N1c2ccc3c(nc(CC(C(=O)O)c4ccccc4)n3-c3cccc(C#N)c3)c2CC[C@@H]1C (stereo partly drawn) [Example 905] | 1 to 1000
COC(=O)N1c2ccc3c(nc(CC(C(=O)O)c4ccccc4)n3C3CCCC(OC)C3)c2CC[C@@H]1C (stereo partly drawn) [Example 404] | 1 to 1000
COC(=O)N1c2ccc3c(nc(C(C)Cn4cc(C(F)F)cn4)n3C3CCCC(C(=O)O)C3)c2CC[C@@H]1C (stereo partly drawn) [Example 862] | 1 to 1000
COC(=O)N1c2ccc3c(nc(C(O)c4ccc(F)c(F)c4)n3C3CCCC(C(=O)O)C3)c2CC[C@@H]1C (stereo partly drawn) [Example 432] | 1 to 1000
COC(=O)N1c2ccc3c(nc(CCn4cccn4)n3CCN(C)[C@H]3CCOC3)c2CC[C@@H]1C [Example 302] | 1 to 1000
COC(=O)N1c2ccc3c(nc(Cc4ccccc4)n3[C@H]3CC[C@H](C#N)CC3)c2CC[C@@H]1C [Example 255] | 1 to 1000
COC(=O)N1c2ccc3c(nc(Cc4ccccc4)n3[C@@H]3CC[C@@H](C(=O)O)OC3)c2CC[C@@H]1C [Example 72, (2S,5R)-5-((S)-2-benzyl-6-(methoxycarbonyl)-7-methyl-6,7,8,9-tetrahydro-3H-imidazo[4,5-f]quinolin-3-yl)tetrahydro-2H-pyran-2-carboxylic Acid] | 1 to 1000
COC(=O)N1c2ccc3c(nc(C(C)Cc4ccccc4)n3C3CCNCC3)c2CC[C@@H]1C (stereo partly drawn) [Example 803] | 1 to 1000
COC(=O)N1c2ccc3c(nc(C(C)Cn4cccn4)n3C3CCS(=O)(=O)C3)c2CC[C@@H]1C (stereo partly drawn) [Example 955] | 1 to 1000
COC(=O)N1c2ccc3c(nc(C(CO)c4ccccc4)n3C3CCCC(C(=O)O)C3)c2CC[C@@H]1C (stereo partly drawn) [Example 668] | 1 to 1000
COC(=O)N1c2ccc3c(nc(C(C)Cn4cc(C)cn4)n3C3CCS(=O)(=O)C3)c2CC[C@@H]1C (stereo partly drawn) [Example 958] | 1 to 1000
COC(=O)N1c2ccc3c(nc(CC(C(=O)O)c4cccc(F)c4)n3C3CCCOC3)c2CC[C@@H]1C (stereo partly drawn) [Example 490] | 1 to 1000
COC(=O)N1c2ccc3c(nc(CC(C(=O)O)c4ccc(C(C)C)cc4)n3C3CCCOC3)c2CC[C@@H]1C (stereo partly drawn) [Example 888] | 1 to 1000
COC(=O)N1c2ccc3c(nc(C(C)Cn4cccn4)n3C3CCS(=O)(=O)C3)c2CC[C@@H]1C (stereo partly drawn) [Example 956] | 1 to 1000
COC(=O)N1c2ccc3c(nc(CCn4cccn4)n3CCN(C)CCO)c2CC[C@@H]1C [Example 296] | 1 to 1000
COC(=O)N1c2ccc3c(nc(CCn4ccccc4=O)n3[C@@H]3CCC[C@@H](C(=O)O)C3)c2CC[C@@H]1C [Example 871] | 1 to 1000
COC(=O)N1c2ccc3c(nc(CC(C(=O)O)c4ccc(C(F)F)cc4)n3C3CCCOC3)c2CC[C@@H]1C (stereo partly drawn) [Example 584] | 1 to 1000
COC(=O)N1c2ccc3c(nc(CCn4ccccc4=O)n3CC(=O)NCC3CCOCC3)c2CC[C@@H]1C [Example 385] | 1 to 1000
COC(=O)N1c2ccc3c(nc(CCn4cccn4)n3CC(=O)NCc3nnc(C)n3C)c2CC[C@@H]1C [Example 343] | 1 to 1000
COC(=O)N1c2ccc3c(nc(Cc4ccccc4)n3C3CCN(c4nnn[nH]4)CC3)c2CC[C@@H]1C [Example 278] | 1 to 1000
COC(=O)N1c2ccc3c(nc(Cc4cnc5cc[nH]c5n4)n3[C@@H]3CCC[C@@H](C(=O)O)C3)c2CC[C@@H]1C [Example 795] | 1 to 1000
COC(=O)N1c2ccc3c(nc(CC(C(=O)O)c4ccccc4)n3C3CCCC(OC)C3)c2CC[C@@H]1C (stereo partly drawn) [Example 632] | 1 to 1000
COC(=O)N1c2ccc3c(nc(C(C)Cn4cc(C(F)F)cn4)n3C3CCC(C(=O)O)CC3)c2CC[C@@H]1C (stereo partly drawn) [Example 912] | 1 to 1000

Structure (SMILES) | IC50 [µM]
COC(=O)N1c2ccc3c(nc(CCn4cccn4)n3CCS(C)(=O)=O)c2CC[C@@H]1C [Example 271] | 1 to 1000
COC(=O)N1c2ccc3c(nc(Cc4ccccc4)n3CC3CCS(=O)(=O)CC3)c2CC[C@@H]1C [Example 253] | 1 to 1000
COC(=O)N1c2ccc3c(nc(CCn4cccn4)n3CCNCc3cccnc3)c2CC[C@@H]1C [Example 294] | 1 to 1000
COC(=O)N1c2ccc3c(nc(C(C)Cc4ccc(F)c(F)c4)n3C3CCCC(C(=O)O)C3)c2CC[C@@H]1C (stereo partly drawn) [Example 405] | 1 to 1000
COC(=O)N1c2ccc3c(nc(CCn4cccn4)n3CCN3CCN(C(C)C)CC3)c2CC[C@@H]1C [Example 311] | 1 to 1000
COC(=O)N1c2ccc3c(nc(C(O)c4cc(F)ccc4F)n3C3CCCC(C(=O)O)C3)c2CC[C@@H]1C (stereo partly drawn) [Example 449] | 1 to 1000
COC(=O)N1c2ccc3c(nc(CC(C(=O)O)c4ccc(C)cc4)n3C3COCC(F)(F)C3)c2CC[C@@H]1C (stereo partly drawn) [Example 913] | 1 to 1000
COC(=O)N1c2ccc3c(nc(C(O)CC4CCC(F)(F)CC4)n3C3CCCC(C(=O)O)C3)c2CC[C@@H]1C (stereo partly drawn) [Example 712] | 1 to 1000
COC(=O)N1c2ccc3c(nc(C(C)Cn4ccc(Cl)n4)n3C3CCCC(C(=O)O)C3)c2CC[C@@H]1C (stereo partly drawn) [Example 459] | 1 to 1000
COC(=O)N1c2ccc3c(nc(Nc4cc(C)nn4C)n3[C@H]3CC[C@H](C(=O)O)CC3)c2CC[C@@H]1C [Example 915] | 1 to 1000
COC(=O)N1c2ccc3c(nc(CCn4ccccc4=O)n3CCNCc3cnn(C)c3)c2CC[C@@H]1C [Example 315] | 1 to 1000
COC(=O)N1c2ccc3c(nc(C(C)Cn4cc(C(F)F)cn4)n3C3CCC(C(=O)O)CC3)c2CC[C@@H]1C (stereo partly drawn) [Example 504] | 1 to 1000
COC(=O)N1c2ccc3c(nc(Cc4ccc(F)cc4)n3[C@@H]3CCC[C@@H](C(=O)O)C3)c2CC[C@@H]1C [Example 675] | 1 to 1000
COC(=O)N1c2ccc3[nH]c(CCc4ccccc4)nc3c2CC[C@@H]1C [Example 7, methyl (S)-7-methyl-2-phenethyl-3,7,8,9-tetrahydro-6H-imidazo[4,5-f]quinoline-6-carboxylate] | 1 to 1000
COC(=O)N1c2ccc3c(nc(Cc4ccccc4)n3-c3ccc(C(=O)O)cc3)c2CC[C@@H]1C [Example 43] | 1 to 1000
COC(=O)N1c2ccc3c(nc(C(C)(O)c4ccccc4)n3C3CCCC(C(=O)O)C3)c2CC[C@@H]1C (stereo partly drawn) [Example 542] | 1 to 1000
COC(=O)N1c2ccc3[nH]c(Cc4ccccc4)nc3c2CC[C@@H]1C [Example 9] | 1 to 1000
COC(=O)N1c2ccc3c(nc(C(C)(C)c4ccccc4)n3[C@H]3CC[C@H](C(=O)O)CC3)c2CC[C@@H]1C [Example 646] | 1 to 1000
COC(=O)N1c2ccc3c(nc(CCn4cccn4)n3[C@H]3CC[C@H](C(=O)O)CC3)c2CC[C@@H]1C [Example 31] | 1 to 1000
COC(=O)N1c2ccc3c(nc([C@H](C)Cn4cc(Cl)cn4)n3[C@H]3CC[C@H](C(=O)O)CC3)c2CC[C@@H]1C [Example 907] | 1 to 1000
COC(=O)N1c2ccc3c(nc(Cc4ccc(OC)c(F)c4F)n3[C@H]3CC[C@H](C(=O)O)CC3)c2CC[C@@H]1C [Example 553] | 1 to 1000
COC(=O)N1c2ccc3c(nc(Cc4ccc(OC)cc4)n3C3CCNCC3)c2CC[C@@H]1C [Example 107] | 1 to 1000
COC(=O)N1c2ccc3c(nc(CCn4ccccc4=O)n3CC(=O)NCC(=O)N(C)C)c2CC[C@@H]1C [Example 382] | 1 to 1000
COC(=O)N1c2ccc3c(nc(CN4CCC(C)(C)CC4=O)n3[C@@H]3CCC[C@@H](C(=O)O)C3)c2CC[C@@H]1C [Example 696] | 1 to 1000
